Test results: patent US20190133128A1, “Fungicidal pyridazinones” (FMC Corporation, priority 2017, published 2019)

What was measured:
Type in all cases: in vivo
[1] = test system: Plasmopara viticola; test: Test B: preventive spray on grape seedlings, grape downy mildew, disease rating; conditions: 250 ppm, 100 = 100% disease control, 0 = no control
Text: (§1) General protocol for preparing test solutions for Tests AG: the test compounds were first dissolved in acetone in an amount equal to 3% of the final volume and then suspended at the desired concentration (in ppm) in acetone and purified water (50/50 mix by volume) containing the surfactant PEG400 (polyhydric alcohol esters). The resulting test suspensions were then used in Tests AG. Compounds were sprayed at a concentration of 250 ppm or other indicated rate to the point of run-off on the test plants. The test solution was sprayed to the point of run-off on grape seedlings. […] A dash (-) indicates no test results.

[2] = test system: Botrytis cinerea; test: Test C: preventive spray on tomato seedlings, gray mold, visual disease rating; conditions: 250 ppm, 100 = 100% disease control, 0 = no control; for pest or weed control at 250 ppm: Botrytis cinerea
Text: as §1, with “tomato” for “grape”

[3] = test system: Phytophthora infestans; test: whole plant or invertebrate; conditions: for pest or weed control at 250 ppm: Phytophthora infestans, in Solanum lycopersicum, read-out: Test D disease control rating; for Test D disease control rating: 250 ppm, tomato seedlings, 100 = 100% disease control, 0 = no control
[4] = test system: Zymoseptoria tritici; test: Test E: preventive spray on wheat seedlings, wheat leaf blotch, visual disease rating; conditions: 250 ppm, 100 = 100% disease control, 0 = no control; for pest or weed control at 250 ppm: Zymoseptoria tritici
Text: as §1, with “wheat” for “grape”

[5] = test system: Puccinia recondita f. sp. tritici; test: Test F: preventive spray on wheat seedlings, wheat leaf rust, visual disease rating; conditions: 250 ppm, 100 = 100% disease control, 0 = no control; for pest or weed control at 250 ppm: Puccinia recondita
Text: as §1, with “wheat” for “grape”, “seedlings. The following day the seedlings were inoculated with a spore suspension of Puccinia recondita f. sp. tritici;” for “seedlings.”

[6] = test system: Erysiphe graminis f. sp. tritici; test: Test G: preventive spray on wheat seedlings, wheat powdery mildew, visual disease rating; conditions: 250 ppm, 100 = 100% disease control, 0 = no control; for pest or weed control at 250 ppm: Blumeria graminis, 192 h
Text: as §1, with “wheat” for “grape”

[7] = test system: Phakopsora pachyrhizi; test: Test A: preventive spray on soybean seedlings, Asian soybean rust, visual disease rating; conditions: 250 ppm, 100 = 100% disease control, 0 = no control; for pest or weed control at 250 ppm: Phakopsora pachyrhizi

SMILES	Test B disease control rating [1] [%]	pest or weed control at 250 ppm [2] [%]	pest or weed control at 250 ppm [3] [%]	pest or weed control at 250 ppm [4] [%]	pest or weed control at 250 ppm [5] [%]	pest or weed control at 250 ppm [6] [%]	Test C disease control rating [2] [%]	Test D disease control rating [3] [%]	Test E disease control rating [4] [%]	Test F disease control rating [5] [%]	Test G disease control rating [6] [%]	pest or weed control at 250 ppm [7] [%]	Test A disease control rating [7] [%]
Cn1ncc(O)c(C(=O)Nc2ccc(C(F)(F)F)cc2)c1=O [Compound 2, 2,3-Dihydro-5-hydroxy-2-methyl-3-oxo-N-[4-(trifluoromethyl)phenyl]-4-pyridazinecarboxamide]	97	0	99	97	100	97	–	–	–	–	–	–	–
Cn1ncc(O)c(C(=O)Nc2ccc(Cl)nc2)c1=O [Compound 6]	85	–	–	–	–	–	99	88	57	99	0	–	–
CCCC(=O)Oc1cnn(C)c(=O)c1C(=O)Nc1ccc(OC(F)(F)F)cc1 [Compound 87]	100	–	–	–	–	–	0	–	100	100	99	–	–
Cn1ncc(OS(C)(=O)=O)c(C(=O)Nc2ccc(C(F)(F)F)cc2)c1=O [Compound 96, 2,3-Dihydro-2-methyl-5-[(methylsulfonyl)oxy]-3-oxo-N-[4-(trifluoromethyl)phenyl]-4-pyridazinecarboxamide]	–	30	0	97	99	84	–	–	–	–	–	98	–
Cn1ncc(OS(C)(=O)=O)c(C(=O)Nc2ccc(OC(F)F)cc2)c1=O [Compound 97, N-[4-(Difluoromethoxy)phenyl]-2,3-dihydro-2-methyl-5-[(methylsulfonyl)oxy]-3-oxo-4-pyridazinecarboxamide]	–	40	95	100	99	91	–	–	–	–	–	95	–
Cn1ncc(OS(C)(=O)=O)c(C(=O)Nc2ccc(C#N)cc2)c1=O [Compound 98, N-(4-cyanophenyl)-2,3-dihydro-2-methyl-5-[(methylsulfonyl)oxy]-3-oxo-4-pyridazinecarboxamide]	–	98	9	95	97	0	–	–	–	–	–	99	–
Cn1ncc(OS(C)(=O)=O)c(C(=O)Nc2ccc(S(F)(F)(F)(F)F)cc2)c1=O [Compound 99, [4-[[[2,3-Dihydro-2-methyl-5-[(methylsulfonyl)oxy]-3-oxo-4-pyridazinyl]carbonyl]amino]phenyl]pentafluorosulfur]	–	50	92	100	98	83	–	–	–	–	–	99	–
Cn1ncc(OS(C)(=O)=O)c(C(=O)Nc2ccc(OC(F)(F)F)cc2F)c1=O [Compound 100]	–	–	–	–	–	–	98	0	92	95	0	–	94
Cn1ncc(OS(C)(=O)=O)c(C(=O)Nc2ccc(F)cc2)c1=O [Compound 101]	–	–	–	–	–	–	0	9	78	99	0	–	78
Cn1ncc(OS(C)(=O)=O)c(C(=O)Nc2ccc(C(F)(F)F)cc2F)c1=O [Compound 102]	–	–	–	–	–	–	41	26	95	99	0	–	99
Cn1ncc(OS(C)(=O)=O)c(C(=O)Nc2ccccc2-c2cc(F)c(F)c(F)c2)c1=O [Compound 103]	–	–	–	–	–	–	0	0	96	90	73	–	84
Cn1ncc(OS(C)(=O)=O)c(C(=O)Nc2ccccc2F)c1=O [Compound 104]	–	–	–	–	–	–	0	0	94	89	65	–	87
Cc1cccc(NC(=O)c2c(OS(C)(=O)=O)cnn(C)c2=O)c1 [Compound 105]	–	–	–	–	–	–	0	33	86	86	0	–	86
Cn1ncc(OS(C)(=O)=O)c(C(=O)Nc2ccc(Oc3ccccc3)cc2)c1=O [Compound 106]	–	–	–	–	–	–	0	85	83	86	81	–	98
COc1cccc(NC(=O)c2c(OS(C)(=O)=O)cnn(C)c2=O)c1 [Compound 108]	–	–	–	–	–	–	0	0	0	68	0	–	0
Cc1ccc(S(=O)(=O)Oc2cnn(C)c(=O)c2C(=O)Nc2ccc(OC(F)(F)F)cc2)cc1 [Compound 112]	–	–	–	–	–	–	0	46	43	95	0	–	25
Cn1ncc(O)c(C(=O)Nc2c(Cl)cc(Cl)cc2Cl)c1=O [Compound 118]	71	–	–	–	–	–	0	100	–	86	97	–	–
Cc1cc(OC(F)(F)F)ccc1NC(=O)c1c(O)cnn(C)c1=O [Compound 124]	99	–	–	–	–	–	0	99	–	99	99	–	–
Cn1ncc(O)c(C(=O)Nc2ccccc2OC(F)(F)F)c1=O [Compound 126]	95	–	–	–	–	–	0	–	82	89	93	–	–
CCCC(=O)Oc1cnn(C)c(=O)c1C(=O)N(C(=O)CCC)c1ccc(OC(F)(F)F)cc1 [Compound 139]	100	–	–	–	–	–	0	0	–	100	100	–	–
Cn1ncc(O)c(C(=O)Nc2ccc(F)cc2C(F)(F)F)c1=O [Compound 145]	100	–	–	–	–	–	0	–	99	99	99	–	–
Cn1ncc(O)c(C(=O)Nc2ccc(OC(F)(F)F)cc2C(F)(F)F)c1=O [Compound 148]	79	–	–	–	–	–	0	–	79	86	98	–	–
Cn1ncc(Cl)c(C(=O)Nc2ccc(Br)cc2)c1=O [Compound 149]	–	–	–	–	–	–	0	68	0	99	0	–	92
